# Measured values reported in patent US9624214B2, “Amino-substituted imidazo[1,2-a]pyridinecarboxamides and their use” (BAYER PHARMA AKTIENGESELLSCHAFT, priority 2012, dated 2017).
# Structures can show the parent of a compound that is named as a salt.
# Molecular target: T1, recombinant guanylate cyclase reporter cell line (Rattus norvegicus, UniProt P19686+P20595)
# T1 construct: expressed in transfected cells
# T1 sequence (P20595 1-619): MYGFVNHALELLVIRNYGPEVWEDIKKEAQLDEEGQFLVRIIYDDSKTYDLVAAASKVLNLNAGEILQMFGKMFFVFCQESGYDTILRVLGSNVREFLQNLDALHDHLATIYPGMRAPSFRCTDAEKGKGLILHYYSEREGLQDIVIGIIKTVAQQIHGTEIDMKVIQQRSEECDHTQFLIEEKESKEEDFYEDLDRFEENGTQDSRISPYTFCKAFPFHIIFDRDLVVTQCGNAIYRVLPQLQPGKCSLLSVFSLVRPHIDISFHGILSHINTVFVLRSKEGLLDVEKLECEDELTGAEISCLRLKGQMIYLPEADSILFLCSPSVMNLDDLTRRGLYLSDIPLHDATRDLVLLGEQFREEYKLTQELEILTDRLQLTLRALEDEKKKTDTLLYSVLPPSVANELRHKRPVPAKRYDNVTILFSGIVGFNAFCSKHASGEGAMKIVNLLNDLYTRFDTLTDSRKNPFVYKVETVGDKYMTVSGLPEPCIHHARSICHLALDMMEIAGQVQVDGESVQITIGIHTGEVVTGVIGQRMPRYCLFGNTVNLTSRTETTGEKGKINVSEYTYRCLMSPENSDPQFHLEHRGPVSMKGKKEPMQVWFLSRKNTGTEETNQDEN
# T1 sequence (P19686 1-690): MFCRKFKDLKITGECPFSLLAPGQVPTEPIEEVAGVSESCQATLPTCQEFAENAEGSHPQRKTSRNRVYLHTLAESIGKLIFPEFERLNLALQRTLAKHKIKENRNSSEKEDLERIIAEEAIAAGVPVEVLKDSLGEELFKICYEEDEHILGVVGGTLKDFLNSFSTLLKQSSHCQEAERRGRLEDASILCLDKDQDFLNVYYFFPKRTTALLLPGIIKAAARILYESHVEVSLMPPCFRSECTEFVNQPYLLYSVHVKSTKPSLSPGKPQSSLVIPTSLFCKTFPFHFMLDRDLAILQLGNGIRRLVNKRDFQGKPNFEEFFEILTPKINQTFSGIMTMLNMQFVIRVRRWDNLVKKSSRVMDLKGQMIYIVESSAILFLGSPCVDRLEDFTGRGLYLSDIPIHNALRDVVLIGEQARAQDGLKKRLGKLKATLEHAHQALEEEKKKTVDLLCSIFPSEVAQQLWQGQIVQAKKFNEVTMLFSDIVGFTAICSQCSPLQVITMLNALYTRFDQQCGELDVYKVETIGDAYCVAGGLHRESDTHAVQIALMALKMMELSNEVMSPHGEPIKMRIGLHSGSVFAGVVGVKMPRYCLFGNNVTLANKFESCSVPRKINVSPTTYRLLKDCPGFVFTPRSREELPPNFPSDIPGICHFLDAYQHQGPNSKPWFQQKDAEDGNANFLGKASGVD
# Test: B-2. Action on recombinant guanylate cyclase reporter cell line
# Format: cell-based
# Conditions: MEC = minimal effective concentration; in some cases mean values from individual determinations
# Procedure, shortened: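 Each compound is applied to a cell line engineered with a reporter for recombinant guanylate cyclase. The minimal effective concentration is then noted, in part as a mean across separate determinations.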
row,MEC [µM],Structure (SMILES)
1,1.00,"Cc1nc2c(OCc3c(F)cccc3F)cccn2c1C(=O)NC(CN)CC(C(F)(F)F)C(F)(F)F (racemic) [Example 5, rac-N-[1-amino-5,5,5-trifluoro-4-(trifluoromethyl)pentan-2-yl]-8-[(2,6-difluorobenzyl)oxy]-2-methylimidazo[1,2-a]-pyridine-3-carboxamide trifluoroacetate]"
2,1.00,"Cc1cc(OCc2c(F)cccc2F)c2nc(C)c(C(=O)NC3CCC4NCCC43)n2c1 (racemic) [Example 342, rac-8-[(2,6-Difluorobenzyl)oxy]-2,6-dimethyl-N-(octahydrocyclopenta[b]pyrrol-4-yl)imidazo[1,2-a]pyridine-3-carboxamide]"
3,0.10,"Cc1cc(OCc2c(F)cccc2F)c2nc(C)c(C(=O)NC3CCNC(C(F)(F)F)C3)n2c1 (racemic) [Example 302, rac-8-[(2,6-difluorobenzyl)oxy]-2,6-dimethyl-N-[2-(trifluoromethyl)piperidin-4-yl]imidazo[1,2-a]pyridine-3-carboxamide]"
4,0.20,"Cc1cc(OCc2c(F)cccc2F)c2nc(C)c(C(=O)NC(CN)c3ccc(F)c(F)c3)n2c1 (stereo not drawn) [Example 51, ent-N-[2-Amino-1-(3,4-difluorophenyl)ethyl]-8-[(2,6-difluorobenzyl)oxy]-2,6-dimethylimidazo-[1,2-a]pyridine-3-carboxamide]"
5,0.30,"Cc1nc2c(OCc3c(F)cccc3F)cccn2c1C(=O)NCC1(N)CCCC1 [Example 41, N-[(1-aminocyclopentyl)methyl]-8-[(2,6-difluorobenzyl)oxy]-2-methylimidazo[1,2-a]-pyridine-3-carboxamide]"
6,0.30,"Cc1cc(OCc2c(F)cccc2F)c2nc(C)c(C(=O)NCC(C)(N)Cc3nc4ccccc4s3)n2c1 (racemic) [Example 310, rac-N-[2-amino-3-(1,3-benzothiazol-2-yl)-2-methylpropyl]-8-[(2,6-difluorobenzyl)oxy]-2,6-dimethylimidazo[1,2-a]pyridine-3-carboxamide]"
7,0.10,"CCCC(C)(N)CNC(=O)c1c(C)nc2c(OCc3c(F)cccc3F)cc(CF)cn12 (stereo not drawn) [Example 403, ent-N-(2-amino-2-methylpentyl)-8-[(2,6-difluorobenzyl)oxy]-6-(fluoromethyl)-2-methylimidazo[1,2-a]pyridine-3-carboxamide]"
8,0.30,"CCC(C)(N)CNC(=O)c1c(C)nc2c(OCc3c(F)cccc3F)cc(Cl)cn12 (racemic) [Example 157, rac-N-(2-amino-2-methylbutyl)-6-chloro-8-[(2,6-difluorobenzyl)oxy]-2-methylimidazo[1,2-a]-pyridine-3-carboxamide]"
9,0.30,"Cc1cc(OCc2c(F)cccc2F)c2nc(C)c(C(=O)NCC(N)C#N)n2c1 (single isomer, unassigned; enantiomer b) [Example 402, ent-N-(2-amino-2-cyanoethyl)-8-[(2,6-difluorobenzyl)oxy]-2,6-dimethylimidazo[1,2-a]pyridine-3-carboxamide (Enantiomer B)]"
10,1.00,"Cc1nc2c(OCc3c(F)cccc3F)cccn2c1C(=O)N[C@@H](C)CN1CCOCC1 [Example 171, 8-[(2,6-difluorobenzyl)oxy]-2-methyl-N-[(2S)-1-(morpholin-4-yl)propan-2-yl]imidazo[1,2-a]-pyridine-3-carboxamide]"
11,1.00,"Cc1nc2c(OCc3c(F)cccc3F)cccn2c1C(=O)NC(CN)CC(C(F)(F)F)C(F)(F)F (single isomer, unassigned; enantiomer a) [Example 7, ent-N-[1-Amino-5,5,5-trifluoro-4-(trifluoromethyl)pentan-2-yl]-8-[(2,6-difluorobenzyl)oxy]-2-methylimidazo[1,2-a]pyridine-3-carboxamide (Enantiomer A)]"
12,0.30,"Cc1cc(OCc2c(F)cccc2F)c2nc(C)c(C(=O)NC(CN)c3ccc4c(c3)OCCO4)n2c1 (racemic) [Example 388, rac-N-[2-amino-1-(2,3-dihydro-1,4-benzodioxin-6-yl)ethyl]-8-[(2,6-difluorobenzyl)oxy]-2,6-dimethylimidazo[1,2-a]pyridine-3-carboxamide]"
13,5.5,"Cc1nc2c(OCc3c(F)cccc3F)cccn2c1C(=O)NCC(C)(N)CCO (single isomer, unassigned; enantiomer a) [Example 272, ent-N-(2-Amino-4-hydroxy-2-methylbutyl)-8-[(2,6-difluorobenzyl)oxy]-2-methylimidazo[1,2-a]-pyridine-3-carboxamide (Enantiomer A)]"
14,1.00,"Cc1cc(OCc2c(F)cccc2F)c2nc(C)c(C(=O)NC3CC(N)C3)n2c1 (mixture of isomers) [Example 334, N-(3-aminocyclobutyl)-8-[(2,6-difluorobenzyl)oxy]-2,6-dimethylimidazo[1,2-a]pyridine-3-carboxamide (cis/trans Mixture)]"
15,0.10,"Cc1cc(OCc2c(F)cccc2F)c2nc(C)c(C(=O)NCC(C)(N)CCC(F)(F)F)n2c1 (single isomer, unassigned; enantiomer a) [Example 408, ent-N-(2-amino-5,5,5-trifluoro-2-methylpentyl)-8-[(2,6-difluorobenzyl)oxy]-2,6-dimethylimidazo[1,2-a]pyridine-3-carboxamide (Enantiomer A)]"
16,1.00,"CCCc1nc2c(OCc3c(F)cccc3F)cc(C)cn2c1C(=O)NCC(C)(N)CC (stereo not drawn) [Example 327, ent-N-(2-amino-2-methylbutyl)-8-[(2,6-difluorobenzyl)oxy]-6-methyl-2-propylimidazo[1,2-a]pyridine-3-carboxamide]"
17,0.10,"CCCC(C)(N)CNC(=O)c1c(CC)nc2c(OCc3c(F)cccc3F)cc(C)cn12 (stereo not drawn) [Example 338, ent-N-(2-amino-2-methylpentyl)-8-[(2,6-difluorobenzyl)oxy]-2-ethyl-6-methylimidazo[1,2-a]pyridine-3-carboxamide]"
18,1.00,"Cc1nc2c(OCc3c(F)cccc3F)cccn2c1C(=O)NCCCN(C)C [Example 87, 8-[(2,6-difluorobenzyl)oxy]-N-[3-(dimethyl-amino)propyl]-2-methylimidazo[1,2-a]-pyridine-3-carboxamide]"
19,0.10,"Cc1cc(OCc2c(F)cccc2F)c2nc(C)c(C(=O)NCC(C)(N)Cc3ccccn3)n2c1 (racemic) [Example 297, rac-N-[2-amino-2-methyl-3-(pyridin-2-yl)propyl]-8-[(2,6-difluorobenzyl)oxy]-2,6-dimethylimidazo[1,2-a]pyridine-3-carboxamide]"
20,1.00,"Cc1nc2c(OCc3c(F)cccc3F)cccn2c1C(=O)NC(CN)c1ccc(Cl)cc1 (racemic) [Example 14, rac-N-[2-Amino-1-(4-chlorophenyl)ethyl]-8-[(2,6-difluorobenzyl)oxy]-2-methylimidazo[1,2-a]-pyridine-3-carboxamide Dihydrochloride]"
21,1.00,"Cc1cc(OCc2c(F)cccc2F)c2nc(C)c(C(=O)N[C@@H]3CC[C@](C)(N)C3(C)C)n2c1 [Example 324, N-[(1R,3S)-3-amino-2,2,3-trimethylcyclopentyl]-8-[(2,6-difluorobenzyl)oxy]-2,6-dimethylimidazo[1,2-a]pyridine-3-carboxamide]"

row,Structure (SMILES),MEC [µM]
1,"Cc1nc2c(OCc3c(F)cccc3F)cccn2c1C(=O)NC1CC2CCCC(C1)N2 (stereo not shown) [Example 27, N-(9-azabicyclo[3.3.1]non-3-yl)-8-[(2,6-difluorobenzyl)oxy]-2-methylimidazo[1,2-a]-pyridine-3-carboxamide]",1.00
